We go through twelve molecules from patent publication US8207177B2, “Inhibitors of E1 activating enzymes” (Millennium Pharmaceuticals, Inc., priority 2006, dated 2012).

This assay concerns the target T1, recombinant human NAE enzyme (Homo sapiens, UniProt Q8TBC4).
T1 construct: His (N); made in house; host or cells: Sf9 insect cells (baculovirus, Bac-to-Bac), purified on Ni-NTA
T1 sequence (Q8TBC4 1-463): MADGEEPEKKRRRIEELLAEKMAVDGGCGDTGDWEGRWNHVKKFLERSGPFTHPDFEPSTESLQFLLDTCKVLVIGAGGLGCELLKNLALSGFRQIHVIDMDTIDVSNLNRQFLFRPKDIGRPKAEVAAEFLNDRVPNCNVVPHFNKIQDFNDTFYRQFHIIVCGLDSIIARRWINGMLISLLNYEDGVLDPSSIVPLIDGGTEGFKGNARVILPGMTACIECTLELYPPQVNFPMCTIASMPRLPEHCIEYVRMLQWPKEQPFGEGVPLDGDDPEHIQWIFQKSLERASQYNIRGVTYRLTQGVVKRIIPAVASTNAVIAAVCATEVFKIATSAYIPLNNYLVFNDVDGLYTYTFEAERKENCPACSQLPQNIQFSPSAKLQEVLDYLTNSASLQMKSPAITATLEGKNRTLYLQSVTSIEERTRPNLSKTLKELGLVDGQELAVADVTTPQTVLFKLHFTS
T1 sequence (Q13564 1-534 partner): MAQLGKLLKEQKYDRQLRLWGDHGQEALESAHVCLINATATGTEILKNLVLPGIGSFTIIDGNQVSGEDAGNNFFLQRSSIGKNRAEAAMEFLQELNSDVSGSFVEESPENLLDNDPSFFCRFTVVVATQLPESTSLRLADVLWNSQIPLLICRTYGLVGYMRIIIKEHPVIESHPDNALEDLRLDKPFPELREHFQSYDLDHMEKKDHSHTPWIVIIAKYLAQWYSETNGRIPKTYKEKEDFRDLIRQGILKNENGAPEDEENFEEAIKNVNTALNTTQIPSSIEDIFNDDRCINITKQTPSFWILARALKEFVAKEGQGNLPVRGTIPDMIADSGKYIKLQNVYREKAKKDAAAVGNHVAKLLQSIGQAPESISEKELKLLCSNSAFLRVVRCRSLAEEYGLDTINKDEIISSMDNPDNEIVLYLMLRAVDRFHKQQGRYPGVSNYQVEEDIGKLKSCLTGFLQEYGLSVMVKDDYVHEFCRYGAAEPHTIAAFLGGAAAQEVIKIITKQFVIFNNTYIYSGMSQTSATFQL
The assay can be described thus: Nedd8-Activating Enzyme (NAE) HTRF Assay. It is filed as biochemical. To be noted: threshold statement: less than or equal to 100 nM; 20 μM ATP, 90 minutes at 24° C. The essentials:
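Sf9-expressed NAEα/His-NAEβ complex (0.28 nM) with 0.075 μM Nedd8-Flag, 0.01 μM Ubc12-GST, 20 μM ATP in 50 mM HEPES pH 7.5, 5 mM MgCl2, 250 μM GSH, 0.05% BSA; 90 min at 24 °C. EDTA stop, then Eu-cryptate anti-FLAG/XL-APC anti-GST detection for 3 h at 24 °C, HTRF read-out.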

In the case of `NS(=O)(=O)OC[C@@H]1C[C@@H](n2ccc3c(N[C@H]4CCc5cccc(F)c54)ncnc32)C[C@@H]1O` [Compound I-66, [(1S,2S,4R)-4-(4-{[(1S)-7-fluoro-2,3-dihydro-1H-inden-1-yl]amino}-7H-pyrrolo[2,3-d]pyrimidin-7-yl)-2-hydroxycyclopentyl]methyl sulfamate], the 50% inhibitory concentration (IC50) is at most 100 nM.

For the molecule `COC[C@@H]1Cc2ccccc2[C@@H]1Nc1ncnc2c1ccn2[C@@H]1C[C@@H](COS(N)(=O)=O)[C@@H](O)C1` [Compound I-79, [(1S,2S,4R)-2-hydroxy-4-(4-{[(1R,2R)-2-(methoxymethyl)-2,3-dihydro-1H-inden-1-yl]amino}-7H-pyrrolo[2,3-d]pyrimidin-7-yl)cyclopentyl]methyl sulfamate], the IC50 was at most 100 nM.

In the case of `C[C@@H]1Cc2ccccc2[C@@H]1Nc1ncnc2c1ccn2[C@@H]1C[C@@H](COS(N)(=O)=O)[C@@H](O)C1` [Compound I-81, [(1S,2S,4R)-2-hydroxy-4-(4-{[(1R,2R)-2-methyl-2,3-dihydro-1H-inden-1-yl]amino)-7H-pyrrolo[2,3-d]pyrimidin-7-yl)cyclopentyl]methyl sulfamate], the concentration for half-maximal inhibition (IC50) is at most 100 nM.

With `CO[C@H]1CCc2ccccc2[C@H]1Nc1ncnc2c1ccn2[C@@H]1C[C@@H](COS(N)(=O)=O)[C@@H](O)C1` [Compound I-85, [(1S,2S,4R)-2-hydroxy-4-(4-{[(1R,2S)-2-methoxy-1,2,3,4-tetrahydronaphthalen-1-yl]amino}-7H-pyrrolo[2,3-d]pyrimidin-7-yl)cyclopentyl]methyl sulfamate], the IC50 was at most 100 nM.

With `NS(=O)(=O)OC[C@@H]1C[C@@H](n2ccc3c(NCc4ccccc4C(F)(F)F)ncnc32)C[C@@H]1O` [Compound I-47, [(1S,2S,4R)-2-hydroxy-4-(4-{[2-(trifluoromethyl)benzyl]amino}-7H-pyrrolo-[2,3-d]pyrimidin-7-yl)cyclopentyl]methyl sulfamate], the IC50 was at most 100 nM.

Turning to `CC[C@H]1Cc2ccccc2[C@H]1Nc1ncnc2c1ccn2[C@@H]1C[C@@H](COS(N)(=O)=O)[C@@H](O)C1` [Compound I-84, [(1S,2S,4R)-4-(4-{[(1S,2S)-2-ethyl-2,3-dihydro-1H-inden-1-yl]amino}-7H-pyrrolo[2,3-d]pyrimidin-7-yl)-2-hydroxycyclopentyl]methyl sulfamate], the IC50 was at most 100 nM.

`CNc1ncnc2c1ccn2[C@@H]1C[C@@H](COS(N)(=O)=O)[C@@H](O)C1` [Compound I-40, {(1S,2S,4R)-2-hydroxy-4-[4-(methylamino)-7H-pyrrolo[2,3-d]pyrimidin-7-yl]-cyclopentyl}methyl sulfamate]: the IC50 was at most 100 nM.

Regarding `NS(=O)(=O)CC[C@@H]1C[C@@H](n2ccc3c(N[C@H]4CCc5ccccc54)ncnc32)C[C@@H]1O` [Compound I-59, 2-((1S,2S,4R)-4-{4-[(1S)-2,3-dihydro-1H-inden-1-ylamino]-7H-pyrrolo[2,3-d]-pyrimidin-7-yl}-2-hydroxycyclopentyl)ethanesulfonamide], the half-maximal inhibitory concentration (IC50) is at most 100 nM.

Take `NS(=O)(=O)OC[C@@H]1C[C@@H](n2ccc3c(NCc4c(F)cccc4F)ncnc32)C[C@@H]1O` [Compound I-15, ((1S,2S,4R)-4-{4-[(2,6-dif1uorobenzyl)amino]-7H-pyrrolo[2,3-d]pyrimidin-7-yl}-2-hydroxycyclopentyl)methyl sulfamate]: the half-inhibitory concentration (IC50) is at most 100 nM.

Regarding `Cc1cc(Cl)ccc1CNc1ncnc2c1ccn2[C@@H]1C[C@@H](COS(N)(=O)=O)[C@@H](O)C1` [Compound I-48, ((1S,2S,4R)-4-{4-[(4-chloro-2-methylbenzyl)amino]-7H-pyrrolo[2,3-d]pyrimidin-7-yl}-2-hydroxycyclopentyl)methyl sulfamate], the IC50 is at most 100 nM.

As to `NS(=O)(=O)OC[C@@H]1C[C@@H](n2ccc3c(OCc4ccc(Cl)cc4)ncnc32)C[C@@H]1O` [Compound I-34, ((1S,2S,4R)-4-{4-[(4-chlorobenzyl)oxy]-7H-pyrrolo[2,3-d]pyrimidin-7-yl}-2-hydroxycyclopentyl)methyl sulfamate], the IC50 is at most 100 nM.

In the case of `Cc1ncnc2c1ccn2[C@@H]1C[C@@H](COS(N)(=O)=O)[C@@H](O)C1` [Compound I-46, [(1S,2S,4R)-2-hydroxy-4-(4-methyl-7H-pyrrolo[2,3-d]pyrimidin-7-yl)cyclopentyl]methyl sulfamate], the IC50 is at most 100 nM.
